27 compounds from patent US10519177B2, “Heterocyclic compounds and uses thereof” (Plexxikon Inc., priority 2013, dated 2019) can be followed below.

Assay [1] has as its target BRD4-BD12 (1-477) (Homo sapiens (Human), UniProt O60885). Briefly: Alphascreen binding assay BRD4-BD12. The settings on record: BRD4(1 2) H4; read-out: Biochemical activity (IC50 μM) BRD4(1 2) H4. The gist of the method:
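First, compound was preincubated 1 h at room temperature with the His-tagged BRD4 protein (BD1 44-164 or tandem BD12 1-477) and acetylated H4 peptide. Next, donor and acceptor beads were added at 7.5 μg/ml final. After 30 min, AlphaScreen emission was recorded.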
(In general: Bead proximity is the source of the signal in Alpha formats.)

Assay [2] relates to MV-4-11 cells. The assay is described as follows: Oncology cell growth assay MV-4-11 (CellTiter Glo). It counts as cell-based. The settings on record: Homo sapiens, MV4-11, 72 h; MV-4-11, 3d growth; read-out: Cell activity (IC50 μM) MV-4-11 3d-Growth. Summed up:
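MV-4-11 AML cells (MLL-AF4), 3000 per well, exposed to 8-point 1:3 compound titration from 10 μM top concentration (0.2% DMSO) for 72 h. Viability by CellTiter Glo luminescence, normalized to DMSO controls; pIC50 from four-parameter curve fit.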
For orientation: In ATP-based viability assays light output follows the ATP content of the culture.

Regarding `Cc1noc(C)c1-c1cnc2c(-c3ccc(C(C)(C)C(=O)O)cc3)cn([C@@H](C)c3ccccn3)c2c1` [P-1021, 2-[4-[6-(3,5-dimethylisoxazol-4-yl)-1-[(1S)-1-(2-pyridyl)ethyl]pyrrolo[3,2-b]pyridin-3-yl]phenyl]-2-methyl-propanoic acid], the IC50 in assay [1] and in assay [2] was < 1 µM each time.
`CC[C@@H](c1ccccn1)n1cc(-c2ccc(C(=O)O)c(F)c2)c2ncc(-c3c(C)noc3C)cc21` [P-1022, 4-[6-(3,5-dimethylisoxazol-4-yl)-1-[(1S)-1-(2-pyridyl)propyl]pyrrolo[3,2-b]pyridin-3-yl]-2-fluoro-benzoic acid]: the IC50 in assay [1] and in assay [2] was < 1 µM throughout.
`CC[C@@H](c1ccccn1)n1cc(-c2ccc(F)c(C(=O)O)c2)c2ncc(-c3c(C)noc3C)cc21` [P-1023, 5-[6-(3,5-dimethylisoxazol-4-yl)-1-[(1S)-1-(2-pyridyl)propyl]pyrrolo[3,2-b]pyridin-3-yl]-2-fluoro-benzoic acid]: the IC50 in assay [1] and in assay [2] was < 1 µM in each case.
As for `CC[C@@H](c1ccccn1)n1cc(-c2ccc(C)c(C(=O)O)c2)c2ncc(-c3c(C)noc3C)cc21` [P-1024, 5-[6-(3,5-dimethylisoxazol-4-yl)-1-[(1S)-1-(2-pyridyl)propyl]pyrrolo[3,2-b]pyridin-3-yl]-2-methyl-benzoic acid], the IC50 in assay [1] and in assay [2] was < 1 µM throughout.
As to `CC[C@@H](c1ccccn1)n1cc(-c2ccc(C(=O)O)cc2F)c2ncc(-c3c(C)noc3C)cc21` [P-1025, 4-[6-(3,5-dimethylisoxazol-4-yl)-1-[(1S)-1-(2-pyridyl)propyl]pyrrolo[3,2-b]pyridin-3-yl]-3-fluoro-benzoic acid], the IC50 in assay [1] and in assay [2] was < 1 µM each time.
In the case of `CC[C@@H](c1ccccn1)n1cc(-c2ccc(C(=O)O)c(C)c2)c2ncc(-c3c(C)noc3C)cc21` [P-1026, 4-[6-(3,5-dimethylisoxazol-4-yl)-1-[(1S)-1-(2-pyridyl)propyl]pyrrolo[3,2-b]pyridin-3-yl]-2-methyl-benzoic acid], the IC50 in assay [1] and in assay [2] was < 1 µM in each case.
As for `CC[C@@H](c1ccccn1)n1cc(-c2ccc(C(=O)O)c(Cl)c2)c2ncc(-c3c(C)noc3C)cc21` [P-1028, 2-chloro-4-[6-(3,5-dimethylisoxazol-4-yl)-1-[(1S)-1-(2-pyridyl)propyl]pyrrolo[3,2-b]pyridin-3-yl]benzoic acid], the IC50 in assay [1] and in assay [2] was < 1 µM each time.
`CC[C@@H](c1ccccn1)n1cc(-c2ccc(C(=O)O)cc2Cl)c2ncc(-c3c(C)noc3C)cc21` [P-1029, 3-chloro-4-[6-(3,5-dimethylisoxazol-4-yl)-1-[(1S)-1-(2-pyridyl)propyl]pyrrolo[3,2-b]pyridin-3-yl]benzoic acid]: the IC50 in assay [1] and in assay [2] was < 1 µM throughout.
For `Cc1noc(C)c1-c1ccc2c(-c3ccc(C(=O)O)cc3)cn([C@@H](C)c3ccccn3)c2c1` [P-1030, 4-[6-(3,5-dimethylisoxazol-4-yl)-1-[(1S)-1-(2-pyridyl)ethyl]indol-3-yl]benzoic acid], the IC50 in assay [1] and in assay [2] was < 1 µM in each case.
For `Cc1noc(C)c1-c1ccc2c(-c3ccc(CC(=O)O)cc3)cn([C@@H](C)c3ccccn3)c2c1` [P-1031, 2-[4-[6-(3,5-dimethylisoxazol-4-yl)-1-[(1S)-1-(2-pyridyl)ethyl]indol-3-yl]phenyl]acetic acid], the IC50 in assay [1] and in assay [2] was < 1 µM each time.
Consider `Cc1noc(C)c1-c1cnc2c(-c3ccc(C4(C(=O)O)CC4)cc3)cn([C@H](c3ccccn3)C3CC3)c2c1` [P-1032, 1-[4-[1-[(S)-cyclopropyl(2-pyridyl)methyl]-6-(3,5-dimethylisoxazol-4-yl)pyrrolo[3,2-b]pyridin-3-yl]phenyl]cyclopropanecarboxylic acid], for which the IC50 in assay [1] and in assay [2] was < 1 µM in each case.
Take `Cc1noc(C)c1-c1cnc2c(I)cn(C(c3ccccn3)C3CCOCC3)c2c1` (stereo not drawn) [P-1034, 4-[3-iodo-1-[2-pyridyl(tetrahydropyran-4-yl)methyl]pyrrolo[3,2-b]pyridin-6-yl]-3,5-dimethyl-isoxazole]: the IC50 in assay [1] and in assay [2] was < 1 µM each time.
Regarding `COC(=O)c1ccc(-c2cn(C(c3ccccn3)C3CCOCC3)c3cc(-c4c(C)noc4C)cnc23)cc1` (stereo not drawn) [P-1035, methyl 4-[6-(3,5-dimethylisoxazol-4-yl)-1-[2-pyridyl(tetrahydropyran-4-yl)methyl]pyrrolo[3,2-b]pyridin-3-yl]benzoate], the IC50 in assay [1] and in assay [2] was < 1 µM each time.
For the compound `Cc1noc(C)c1-c1cnc2c(-c3ccc(C(=O)O)cc3)cn(C(c3ccccn3)C3CCOCC3)c2c1` (stereo not drawn) [P-1036, 4-[6-(3,5-dimethylisoxazol-4-yl)-1-[2-pyridyl(tetrahydropyran-4-yl)methyl]pyrrolo[3,2-b]pyridin-3-yl]benzoic acid], the IC50 in assay [1] and in assay [2] was < 1 µM each time.
In the case of `Cc1noc(C)c1-c1cnc2c(-c3ccc(C(=O)O)c(F)c3)cn(C(c3ccccn3)C3CCCC3)c2c1` (stereo not drawn) [P-1037, 4-[1-[cyclopentyl(2-pyridyl)methyl]-6-(3,5-dimethylisoxazol-4-yl)pyrrolo[3,2-b]pyridin-3-yl]-2-fluoro-benzoic acid], the IC50 in assay [1] and in assay [2] was < 1 µM in each case.
For the compound `Cc1cc(-c2cn(C(c3ccccn3)C3CCCC3)c3cc(-c4c(C)noc4C)cnc23)ccc1C(=O)O` (stereo not drawn) [P-1038, 4-[1-[cyclopentyl(2-pyridyl)methyl]-6-(3,5-dimethylisoxazol-4-yl)pyrrolo[3,2-b]pyridin-3-yl]-2-methyl-benzoic acid], the IC50 in assay [1] and in assay [2] was < 1 µM throughout.
As to `COc1ncc(-c2cn(C(c3ccccc3)c3ccccn3)c3cc(-c4c(C)noc4C)ccc23)cn1` (stereo not drawn) [P-1039, 4-[3-(2-methoxypyrimidin-5-yl)-1-[phenyl(2-pyridyl)methyl]indol-6-yl]-3,5-dimethyl-isoxazole], the IC50 in assay [1] and in assay [2] was < 1 µM each time.
As to `Cc1noc(C)c1-c1ccc2c(-c3cnn(C)c3)cn(C(c3ccccc3)c3ccccn3)c2c1` (stereo not drawn) [P-1040, 3,5-dimethyl-4-[3-(1-methylpyrazol-4-yl)-1-[phenyl(2-pyridyl)methyl]indol-6-yl]isoxazole], the IC50 in assay [1] and in assay [2] was < 1 µM throughout.
Regarding `Cc1ccc(-c2cn(C(c3ccccc3)c3ccccn3)c3cc(-c4c(C)noc4C)ccc23)cn1` (stereo not drawn) [P-1041, 3,5-dimethyl-4-[3-(6-methyl-3-pyridyl)-1-[phenyl(2-pyridyl)methyl]indol-6-yl]isoxazole], the IC50 in assay [1] and in assay [2] was < 1 µM throughout.
As for `Cc1noc(C)c1-c1ccc2c(-c3cnc(C4CC4)nc3)cn(C(c3ccccc3)c3ccccn3)c2c1` (stereo not drawn) [P-1042, 4-[3-(2-cyclopropylpyrimidin-5-yl)-1-[phenyl(2-pyridyl)methyl]indol-6-yl]-3,5-dimethyl-isoxazole], the IC50 in assay [1] and in assay [2] was < 1 µM throughout.
For `Cc1noc(C)c1-c1ccc2c(-c3ccc(C(=O)O)c(F)c3)cn(C(c3ccccc3)c3ccccn3)c2c1` (stereo not drawn) [P-1043, 4-[6-(3,5-dimethylisoxazol-4-yl)-1-[phenyl(2-pyridyl)methyl]indol-3-yl]-2-fluoro-benzoic acid], the IC50 in assay [1] and in assay [2] was < 1 µM each time.
Regarding `Cc1noc(C)c1-c1ccc2c(-c3ccc(C(=O)O)cc3F)cn(C(c3ccccc3)c3ccccn3)c2c1` (stereo not drawn) [P-1044, 4-[6-(3,5-dimethylisoxazol-4-yl)-1-[phenyl(2-pyridyl)methyl]indol-3-yl]-3-fluoro-benzoic acid], the IC50 in assay [1] and in assay [2] was < 1 µM each time.
Consider `Cc1cc(-c2cn(C(c3ccccc3)c3ccccn3)c3cc(-c4c(C)noc4C)ccc23)ccc1C(=O)O` (stereo not drawn) [P-1045, 4-[6-(3,5-dimethylisoxazol-4-yl)-1-[phenyl(2-pyridyl)methyl]indol-3-yl]-2-methyl-benzoic acid], for which the IC50 in assay [1] and in assay [2] was < 1 µM throughout.
Regarding `Cc1noc(C)c1-c1ccc2c(-c3cnn(CC(F)(F)F)c3)cn(C(c3ccccc3)c3ccccn3)c2c1` (stereo not drawn) [P-1046, 3,5-dimethyl-4-[1-[phenyl(2-pyridyl)methyl]-3-[1-(2,2,2-trifluoroethyl)pyrazol-4-yl]indol-6-yl]isoxazole], the IC50 in assay [1] and in assay [2] was < 1 µM throughout.
`Cc1noc(C)c1-c1ccc2c(-c3ccc(C(=O)O)c(Cl)c3)cn(C(c3ccccc3)c3ccccn3)c2c1` (stereo not drawn) [P-1047, 2-chloro-4-[6-(3,5-dimethylisoxazol-4-yl)-1-[phenyl(2-pyridyl)methyl]indol-3-yl]benzoic acid]: the IC50 in assay [1] and in assay [2] was < 1 µM in each case.
Consider `COc1cc(-c2cn(C(c3ccccn3)C3CCCC3)c3cc(-c4c(C)noc4C)cnc23)ccc1C(=O)O` (stereo not drawn) [P-1048, 4-[1-[cyclopentyl(2-pyridyl)methyl]-6-(3,5-dimethylisoxazol-4-yl)pyrrolo[3,2-b]pyridin-3-yl]-2-methoxy-benzoic acid], for which the IC50 in assay [1] and in assay [2] was < 1 µM each time.
As to `Cc1noc(C)c1-c1cnc2c(-c3ccc(C4(C(=O)O)CC4)cc3)cn(C(c3ccccn3)C3CCCC3)c2c1` (stereo not drawn) [P-1049, 1-[4-[1-[cyclopentyl(2-pyridyl)methyl]-6-(3,5-dimethylisoxazol-4-yl)pyrrolo[3,2-b]pyridin-3-yl]phenyl]cyclopropanecarboxylic acid], the IC50 in assay [1] and in assay [2] was < 1 µM each time.
